From patent publication US4025623A, “4'-Epi-6'-hydroxyadriamycin and method of use” (priority 1974, dated 1977)
Converted amounts (≈) assume the structure as drawn. Like-named read-outs stand apart in the source and are kept apart here.

How the values were obtained:
[1] = test system: Moloney Sarcoma virus (MSV); assay: MSV foci formation in mouse embryo fibroblasts (in vitro); assay type: cell-based; settings: Fibroblast, read-out: ID50 MSV foci formation
Description: (§1) (2) Mouse embryo fibroblasts (MEF) were plated on 35 mm. Falcon plastic dishes, infected 24 hours later with Moloney Sarcoma virus (MSV), and treated for 3 days with different concentrations of the compounds of the invention. The number of foci of transformed cells was microscopically ascertained 5 days after the infection. Uninfected MEF were similarly treated, and at the end of the test, the cells were counted in a hemocytometer. In all the tests, the cells were incubated in a 5% CO2 incubator at 37° C.
(§2) The test compounds were dissolved in distilled water and then diluted in culture medium.
(§3) The results are reported in Table I as ID50 (Inhibiting Dose 50%), calculated on dose-effects lines.

[2] = test system: HeLa cells; assay: HeLa cells cloning efficiency (in vitro); assay type: cell-based; settings: for IC50: Homo sapiens, HeLa, read-out: ID50 HeLa cells cloning efficiency
Description: (1) HeLa cells were exposed to each of compounds (I) and (V) for 2, 8 and 24 hours, after which the compounds were removed and the cells seeded on […]. Falcon plastic dishes (200 cells/plate) in a growth medium. The number of colonies was ascertained microscopically 5 days later.
as §2, §3

[3] = test system: ascites Sarcoma 180; assay: Antitumor activity on ascites Sarcoma 180 in CD 1 mice; assay type: in vivo; settings: for LTS, Long Term survivors: after 60 days; for T/C, median survival time as % over controls: 1 treatment i.p. at day 1
Description: (§4) The antitumor activity of the compounds of the invention was tested on ascites Sarcoma 180. 3 month old CD 1 mice were used. Sarcoma 180 ascites cells were inoculated intraperitoneally (10^6 cells/mouse).
(§5) The test compounds were dissolved in distilled water, then diluted in Ringer's solution, and administered intraperitoneally 1 day after the tumor implant (10 ml./kg. of body weight). The toxicity of the test compounds was evaluated by macroscopic autoptic examination, mainly in terms of reduction in spleen size. The comparison of the effectiveness of the tested compounds is based on the maximum increase in median survival time, as compared to untreated controls, over the dose range used. The number of Long Term Survivors (LTS) refers to tumor-free mice at the end of the test (60 days).

[4] = MEF proliferation (uninfected mouse embryo fibroblasts, in vitro); assay type: cell-based; settings: time of exposure 72 hours, read-out: ID50 MEF proliferation
Description: as §1, §2

[5] = Toxicity in Sarcoma 180 bearing CD 1 mice (toxic deaths, autopsy); assay type: in vivo
Description: as §4, §5

Row | Compound | IC50 ([1]; 72 h) | IC50 ([2]; 2 h) | IC50 ([2]; 8 h) | IC50 ([2]; 24 h) | LTS, Long Term survivors ([3]; 0.5 mg./kg. i.p. at day 1) | T/C, median survival time as % over controls ([3]; 0.5 mg./kg.) | LTS, Long Term survivors ([3]; 1 mg./kg. i.p. at day 1) | T/C, median survival time as % over controls ([3]; 1 mg./kg.) | LTS, Long Term survivors ([3]; 2 mg./kg. i.p. at day 1) | T/C, median survival time as % over controls ([3]; 2 mg./kg.) | T/C, median survival time as % over controls ([3]; 5 mg./kg.) | LTS, Long Term survivors ([3]; 10 mg./kg. i.p. at day 1) | T/C, median survival time as % over controls ([3]; 10 mg./kg.) | CC50 at 72 h [4] | Toxicity, number of mice which died as a result of the toxic effects of the compound ([5]; 5 mg./kg. i.p. at day 1) | also measured
1 | COc1cccc2c1C(=O)c1c(O)c3c(c(O)c1C2=O)C[C@@](O)(C(=O)CO)C[C@@H]3O[C@H]1C[C@H](N)[C@H](O)[C@H](C)O1 [Adriamycin, adriamycin] | 0.0025 µg/mL (≈ 0.0046 µM) | 0.28 µg/mL (≈ 0.515 µM) | 0.11 µg/mL (≈ 0.202 µM) | 0.018 µg/mL (≈ 0.0331 µM) | 1/10 | 142% | 25/159 | 183% | 30/125 | 210% | 243% | 18/139 | 212% | 0.007 µg/mL (≈ 0.0129 µM) | 7/125 | LTS, Long Term survivors ([3]; 5 mg./kg. i.p. at day 1): 27/125; Toxicity, number of mice which died as a result of the toxic effects of the compound ([5]; 10 mg./kg. i.p. at day 1): 18/139
2 | COc1cccc2c1C(=O)c1c(O)c3c(c(O)c1C2=O)C[C@@](O)(C(=O)CO)C[C@@H]3O[C@H]1C[C@H](N)[C@@H](O)[C@H](CO)O1 [4'-epi-6'-hydroxyadriamycin] | 0.025 µg/mL (≈ 0.0447 µM) | 0.9 µg/mL (≈ 1.61 µM) | 1 µg/mL (≈ 1.79 µM) | 1 µg/mL (≈ 1.79 µM) | – | – | – | – | – | – | – | 2/10 | 162% | 0.05 µg/mL (≈ 0.0894 µM) | – | LTS, Long Term survivors ([3]; 7.5 mg./kg. i.p. at day 1): 1/10; T/C, median survival time as % over controls ([3]; 7.5 mg./kg.): 143%; LTS, Long Term survivors ([3]; 15 mg./kg. i.p. at day 1): 2/10; T/C, median survival time as % over controls ([3]; 15 mg./kg.): 134%; Toxicity (in words) ([5]; 15 mg./kg. i.p. at day 1): not toxic
3 | COc1cccc2c1C(=O)c1c(O)c3c(c(O)c1C2=O)C[C@@](O)(C(C)=O)C[C@@H]3O[C@H]1C[C@H](N)[C@H](O)[C@H](C)O1 [Daunomycin, daunomycin] | 0.0055 µg/mL (≈ 0.0104 µM) | 0.03 µg/mL (≈ 0.0569 µM) | 0.013 µg/mL (≈ 0.0246 µM) | 0.003 µg/mL (≈ 0.00569 µM) | 3/20 | 146% | 8/55 | 172% | 11/68 | 192% | 176% | – | – | 0.009 µg/mL (≈ 0.0171 µM) | 14/50 | T/C, median survival time as % over controls ([3]; 8 mg./kg.): 78%; Toxicity, number of mice which died as a result of the toxic effects of the compound ([5]; 8 mg./kg. i.p. at day 1): 7/10
4 | COc1cccc2c1C(=O)c1c(O)c3c(c(O)c1C2=O)C[C@@](O)(C(C)=O)C[C@@H]3O[C@H]1C[C@H](N)[C@@H](O)[C@H](CO)O1 [4'-epi-6'-hydroxydaunomycin] | – | – | – | – | – | – | – | – | – | 100% | – | – | 167% | 0.25 µg/mL (≈ 0.46 µM) | – | IC50 ([1]; time of exposure 72 hours): 0.1 µg/mL (≈ 0.184 µM); IC50 ([2]; time of exposure 2 hours): > 10 µg/mL; IC50 ([2]; time of exposure 8 hours): > 10 µg/mL; IC50 ([2]; time of exposure 24 hours): 1.3 µg/mL (≈ 2.39 µM); decrease of activity as compared to parent compound ([2]; in vitro systems tested (HeLa cells, MSV foci, MEF proliferation), compared with 4'-epi-6'-hydroxyadriamycin versus adriamycin): The decrease of activity was higher; T/C, median survival time as % over controls ([3]; 50 mg./kg.): 137%; Toxicity, number of mice which died as a result of the toxic effects of the compound ([5]; 50 mg./kg. i.p. at day 1): 1/10
